One compound from patent publication US4568646A, “Preparation of antibiotic LL-D05139β from cultures of Glycomyces harbinensis, gen. nov., sp. nov” (American Cyanamid Company, priority 1985, dated 1986) can be followed below.

Series [1] can be described thus: Stability in solution as a function of pH. The format is physicochemical.
For series [2], the system named is human lung carcinoma (LX-1). The series is described as follows: Human tumor clonogenic (stem cell) assay, lung carcinoma. Conditions: for T/C (treated/control colonies): Lung Carcinoma. The class given is cell-based. The method, then: (§1) This test was performed essentially by the method of A. Hamburger and S. Salmon, Primary bioassay of human tumor stem cells., Science, 197: 461-463 (1977). Human colon carcinoma (CX-1) and human lung carcinoma (LX-1) tumors were obtained from the National Cancer Institute and propagated in athymic Balb/c mice. Freshly removed tumors were dispersed with trypsin 0.25% and 5×10^4 lung carcinoma cells or 1×10^5 colon carcinoma cells in soft (0.3%) agarose medium containing 0.1 ml of test drug were plated onto a solidified (0.5%) agarose base medium in 35 mm grided dishes. Cultures were incubated at 37° C. in a humidified 5% carbon dioxide in air atmosphere. Colonies were counted after 10-11 days. A compound is considered active if the treated/control (T/C) value is ≤30%, representing a 70% cell kill.

For series [3], the system named is human colon carcinoma (CX-1). The series can be described thus: Human tumor clonogenic (stem cell) assay, colon carcinoma. The format is cell-based. As to the method:
as §1

Take `C[C@H](N)C(=O)N[C@@H](COC(=O)C=[N+]=[N-])C(=O)O` [LL-D05139β, N-L-alanyl-L-serine diazoacetate]: the Stability in solution entry was “Decomposes rapidly” in series [1] (below pH 5.0) and “stable” in series [1] (weakly basic solutions). For the same compound, the “T/C (treated/control colonies)” value in series [2] (concentration 2 mgc/ml) is listed as 23.2%; in series [2] (concentration 20 mgc/ml), 17.8%; in series [2] (concentration 200 mgc/ml), 13.0%; in series [3] (Colon Carcinoma, concentration 2 mgc/ml) it was 16.0%. For the same compound, the “Activity in human tumor clonogenic assay (active if T/C ≤30%)” value in series [2] (human lung (LX-1) carcinoma, at 2.0 mcg/ml and higher doses) was “active”; in series [3] (colon (CX-1) carcinoma, at 2.0 mcg/ml and higher doses), “active”.
